Experimental data published in ChEMBL document CHEMBL1128492, “Effect of lipophilicity at N-1 on activity of fluoroquinolones against mycobacteria” (J Med Chem, 1995).
Values after ≈ are worked out from the molar mass of the structure shown.

Assays:
Pseudomonas aeruginosa = assay: Minimum inhibitory concentration against gram-negative Pseudomonas aeruginosa U1-18 (PA-7); type: functional
Staphylococcus aureus = assay: Minimum inhibitory concentration against gram-positive Staphylococcus aureus H-228 (SA-13); type: functional
[1] = Dissociation constant (pKa2)
[2] = test system: Mycolicibacterium fortuitum; assay: Minimum inhibitory concentration against Mycobacterium fortuitum; type: functional
Streptococcus pyogenes = assay: Minimum inhibitory concentration against gram-positive Streptococcus pyogenes C203 (SP1-1); type: functional
Escherichia coli = assay: Minimum inhibitory concentration against gram-negative Escherichia coli Vogel (EC-1); type: functional
[3] = test system: Mycolicibacterium smegmatis; assay: Minimum inhibitory concentration against Mycobacterium smegmatis; type: functional
[4] = Dissociation constant (pKa1)

| MIC (Pseudomonas aeruginosa) [µg/mL] | MIC (Staphylococcus aureus) [µg/mL] | pKa [1] | MIC [2] [µg/mL] | MIC (Streptococcus pyogenes) [µg/mL] | MIC (Escherichia coli) [µg/mL] | MIC [3] [µg/mL] | pKa [4] | Compound |
| --- | --- | --- | --- | --- | --- | --- | --- | --- |
| 0.2 (≈ 0.496 µM) | 0.4 (≈ 0.992 µM) | 8.31 | 0.25 (≈ 0.62 µM) | 0.4 (≈ 0.992 µM) | 0.1 (≈ 0.248 µM) | 0.5 (≈ 1.24 µM) | 5.87 | O=C(O)c1cn(-c2ccc(F)cc2F)c2cc(N3CCNCC3)c(F)cc2c1=O |
| 1.6 (≈ 4.05 µM) | 1.6 (≈ 4.05 µM) | 8.58 | 2 (≈ 5.06 µM) | 3.1 (≈ 7.84 µM) | 0.4 (≈ 1.01 µM) | 4 (≈ 10.1 µM) | 6.12 | CC1CN(c2cc3c(cc2F)c(=O)c(C(=O)O)cn3-c2ccccc2)CC(C)N1 (configuration not stated) |
| 3.1 (≈ 7.11 µM) | > 3.1 | – | 2 (≈ 4.58 µM) | > 3.1 | 0.4 (≈ 0.917 µM) | 4 (≈ 9.17 µM) | – | O=C(O)c1cn(-c2ccc(Cl)cc2Cl)c2cc(N3CCNCC3)c(F)cc2c1=O |
| 3.1 (≈ 7.84 µM) | > 3.1 | – | 16 (≈ 40.5 µM) | > 3.1 | 0.8 (≈ 2.02 µM) | 32 (≈ 80.9 µM) | – | Cc1ccc(-n2cc(C(=O)O)c(=O)c3cc(F)c(N4CCNCC4)cc32)c(C)c1 |
| 3.1 (≈ 7.43 µM) | 1.6 (≈ 3.83 µM) | 8.54 | 0.5 (≈ 1.2 µM) | 3.1 (≈ 7.43 µM) | 0.8 (≈ 1.92 µM) | 8 (≈ 19.2 µM) | 5.87 | Cc1c(F)ccc(-n2cc(C(=O)O)c(=O)c3cc(F)c(N4CCNCC4)cc32)c1F |
| 3.1 (≈ 7.57 µM) | 3.1 (≈ 7.57 µM) | 8.61 | 1 (≈ 2.44 µM) | > 3.1 | 0.8 (≈ 1.95 µM) | 4 (≈ 9.77 µM) | 6.1 | Cc1ccc(-n2cc(C(=O)O)c(=O)c3cc(F)c(N4CC(C)NC(C)C4)cc32)cc1 (configuration not stated) |
| 0.4 (≈ 1 µM) | 0.8 (≈ 2 µM) | 8.37 | 1 (≈ 2.5 µM) | 1.6 (≈ 4.01 µM) | 0.2 (≈ 0.501 µM) | 4 (≈ 10 µM) | 6.11 | Cc1cc(F)ccc1-n1cc(C(=O)O)c(=O)c2cc(F)c(N3CCNCC3)cc21 |
| > 3.1 | 1.6 (≈ 3.59 µM) | 8.47 | 1 (≈ 2.24 µM) | > 3.1 | 3.1 (≈ 6.96 µM) | 4 (≈ 8.98 µM) | 5.94 | Cc1c(F)ccc(-n2cc(C(=O)O)c(=O)c3cc(F)c(N4CC(C)NC(C)C4)cc32)c1F (configuration not stated) |
| > 3.1 | > 3.1 | 8.37 | 2 (≈ 4.31 µM) | > 3.1 | 1.6 (≈ 3.45 µM) | 4 (≈ 8.61 µM) | 5.75 | CC1CN(c2cc3c(cc2F)c(=O)c(C(=O)O)cn3-c2ccc(Cl)cc2Cl)CC(C)N1 (configuration not stated) |
| 1.6 (≈ 3.87 µM) | 1.6 (≈ 3.87 µM) | 8.51 | 0.5 (≈ 1.21 µM) | 3.1 (≈ 7.5 µM) | 0.4 (≈ 0.968 µM) | 2 (≈ 4.84 µM) | 5.88 | CC1CN(c2cc3c(cc2F)c(=O)c(C(=O)O)cn3-c2ccccc2F)CC(C)N1 (configuration not stated) |
| 0.8 (≈ 2.08 µM) | 0.8 (≈ 2.08 µM) | – | 0.25 (≈ 0.649 µM) | 1.6 (≈ 4.15 µM) | 0.1 (≈ 0.259 µM) | 2 (≈ 5.19 µM) | – | O=C(O)c1cn(-c2ccccc2F)c2cc(N3CCNCC3)c(F)cc2c1=O |
| 1.6 (≈ 3.74 µM) | 1.6 (≈ 3.74 µM) | 8.16 | 2 (≈ 4.68 µM) | > 3.1 | 0.4 (≈ 0.936 µM) | 2 (≈ 4.68 µM) | 6.16 | Cc1cc(F)ccc1-n1cc(C(=O)O)c(=O)c2cc(F)c(N3CC(C)NC(C)C3)cc21 (configuration not stated) |
| 1.6 (≈ 4.01 µM) | 1.6 (≈ 4.01 µM) | 8.34 | 1 (≈ 2.5 µM) | 3.1 (≈ 7.76 µM) | 0.2 (≈ 0.501 µM) | 2 (≈ 5.01 µM) | 5.96 | Cc1ccc(-n2cc(C(=O)O)c(=O)c3cc(F)c(N4CCNCC4)cc32)c(F)c1 |
| 0.2 (≈ 0.519 µM) | 0.4 (≈ 1.04 µM) | 8.59 | 0.25 (≈ 0.649 µM) | 0.4 (≈ 1.04 µM) | 0.1 (≈ 0.259 µM) | 1 (≈ 2.59 µM) | 6.02 | O=C(O)c1cn(-c2ccc(F)cc2)c2cc(N3CCNCC3)c(F)cc2c1=O [SARAFLOXACIN] |
| 1.6 (≈ 4.19 µM) | 3.1 (≈ 8.13 µM) | 8.59 | 4 (≈ 10.5 µM) | > 3.1 | 0.4 (≈ 1.05 µM) | 8 (≈ 21 µM) | 5.98 | Cc1ccccc1-n1cc(C(=O)O)c(=O)c2cc(F)c(N3CCNCC3)cc21 |
| 3.1 (≈ 7.25 µM) | 3.1 (≈ 7.25 µM) | – | 1 (≈ 2.34 µM) | > 3.1 | 0.8 (≈ 1.87 µM) | 2 (≈ 4.68 µM) | – | Cc1ccc(-n2cc(C(=O)O)c(=O)c3cc(F)c(N4CC(C)NC(C)C4)cc32)c(F)c1 (configuration not stated) |
| 0.8 (≈ 1.85 µM) | 0.4 (≈ 0.927 µM) | 8.26 | 0.25 (≈ 0.579 µM) | 0.8 (≈ 1.85 µM) | 0.4 (≈ 0.927 µM) | 0.5 (≈ 1.16 µM) | 5.94 | CC1CN(c2cc3c(cc2F)c(=O)c(C(=O)O)cn3-c2ccc(F)cc2F)CC(C)N1 (configuration not stated) |
| 0.8 (≈ 1.94 µM) | 0.4 (≈ 0.968 µM) | – | 0.25 (≈ 0.605 µM) | 0.8 (≈ 1.94 µM) | 0.2 (≈ 0.484 µM) | 1 (≈ 2.42 µM) | – | CC1CN(c2cc3c(cc2F)c(=O)c(C(=O)O)cn3-c2ccc(F)cc2)CC(C)N1 (configuration not stated) |
| 1.6 (≈ 4.19 µM) | 3.1 (≈ 8.13 µM) | – | 2 (≈ 5.24 µM) | > 3.1 | 0.4 (≈ 1.05 µM) | 4 (≈ 10.5 µM) | – | Cc1ccc(-n2cc(C(=O)O)c(=O)c3cc(F)c(N4CCNCC4)cc32)cc1 |
| > 3.1 | > 3.1 | 8.55 | 1 (≈ 2.44 µM) | > 3.1 | 1.6 (≈ 3.91 µM) | 8 (≈ 19.5 µM) | 6.01 | Cc1ccccc1-n1cc(C(=O)O)c(=O)c2cc(F)c(N3CC(C)NC(C)C3)cc21 (configuration not stated) |
| > 3.1 | > 3.1 | 8.24 | 4 (≈ 9.45 µM) | > 3.1 | 3.1 (≈ 7.32 µM) | 16 (≈ 37.8 µM) | 6.05 | Cc1ccc(-n2cc(C(=O)O)c(=O)c3cc(F)c(N4CC(C)NC(C)C4)cc32)c(C)c1 (configuration not stated) |

| Compound | MIC (Pseudomonas aeruginosa) [µg/mL] | MIC (Staphylococcus aureus) [µg/mL] | pKa [1] | MIC [2] [µg/mL] | MIC (Streptococcus pyogenes) [µg/mL] | MIC (Escherichia coli) [µg/mL] | MIC [3] [µg/mL] | pKa [4] |
| --- | --- | --- | --- | --- | --- | --- | --- | --- |
| C[C@@H]1CN(c2c(F)c(N)c3c(=O)c(C(=O)O)cn(C4CC4)c3c2F)C[C@H](C)N1 [SPARFLOXACIN] | 0.8 (≈ 2.04 µM) | 0.05 (≈ 0.127 µM) | – | 0.06 (≈ 0.153 µM) | 0.1 (≈ 0.255 µM) | 0.025 (≈ 0.0637 µM) | 0.13 (≈ 0.331 µM) | – |
| O=C(O)c1cn(C2CC2)c2cc(N3CCNCC3)c(F)cc2c1=O [CIPROFLOXACIN] | 0.2 (≈ 0.604 µM) | – | – | 0.06 (≈ 0.181 µM) | 0.4 (≈ 1.21 µM) | – | 0.25 (≈ 0.754 µM) | – |
| O=C(O)c1cn(-c2ccccc2)c2cc(N3CCNCC3)c(F)cc2c1=O | 0.8 (≈ 2.18 µM) | 0.8 (≈ 2.18 µM) | – | 0.5 (≈ 1.36 µM) | 3.1 (≈ 8.44 µM) | 0.1 (≈ 0.272 µM) | 2 (≈ 5.44 µM) | – |
